Measurements: patent publication US8759311B2, “Use of siRNA targetting SIPA1L1 for the reduction of adipogenesis” (Sanofi, priority 2009, dated 2014)

Experiments:
[1] = tested on: C57BL/6J mice; assay: high fat diet fed C57BL/6J mice treated with Rimonabant; assay type: in vivo, mouse; conditions: HFD mice, 10 mg.kg−1.day−1 for one month
Description: C57BL/6J mice, which are obesity-prone (Collins S. et al., 2004) were fed for 6 months with a high fat diet (HFD).

[2] = tested on: Sipa1l1; assay: retroviral shRNA transduction of 3T3-L1 cells, Sipa1l1 mRNA by RT-PCR; assay type: cell-based, mouse; conditions: day 0 prior differentiation
Protocol: 3T3-L1 cells were cultured in DMEM (Gibco) with 10% FBS (Gibco) at 5% CO2. After retroviral infection (see below), cells were allow to grow to confluence in either 100-mm or 60-mm dishes in DMEM with 10% FBS. Once confluence was reached, cells were exposed to differentiation medium containing dexamethasone (1 μM), insulin (5 μg/ml), and isobutylmethylxanthine ([…]) (DMI). After 2 days cells were maintained in medium containing insulin (5 μg/ml) until ready for harvest at 7 days.
Retroviruses were constructed in the RNAi-Ready pSIREN-RetroQ ZsGreen (pSIREN Clontech) or pMSCV puromycin plasmid (pMSCV, Clontech). Viral constructs were transfected using calcium-phosphate method described in Jordan M. et al (2004) into 293 HEK packaging cells along with constructs encoding gag-pol and the VSV-G protein. Supernatants were harvested after 48 h in presence of 3 μm of Trichostatin A (Sigma) and either used immediately or snap frozen and stored at −80° C. for later use. Viral supernatants were added to the cells for 6 hours in the presence of polybrene (4 μg/ml) and diluted two times with fresh medium for the next 15 hours.
Total RNA was isolated from cultured cells using peqGOLD TriFast reagent according to the manufacturer's instructions (Axonlab). First strand cDNA was synthesized from 0.5 μg of total RNA using random primers and Superscript II (Invitrogen). […]

| Molecule | body weight [1] | glucose tolerance [1] | knockdown of Sipa1l1 mRNA [2] |
| --- | --- | --- | --- |
| Cc1c(C(=O)NN2CCCCC2)nn(-c2ccc(Cl)cc2Cl)c1-c1ccc(Cl)cc1 [Rimonabant] | normalize | normalized | – |
| shLuc: control shRNA against the firefly luciferase protein (SEQ ID NO. 7) (nucleic acid, the letters are possibly those of the target site) GATCCGTGCGTTGCTAGTACCAATTCAAGAGATTGGTACTAGCAACGCACTTTTTTACGCGTG | – | – | no inhibition |
